In US12595269B2, “Morpholine-like monoamine releasers” (Solvonis Therapeutics Ireland Holdings Limited, priority 2022, dated 2026):
Read-outs that look alike come from different tables or passages of the source.

Tests used:
Format in all cases: in vitro ADME
CYP2C8 = target: T1, CYP2C8 (Homo sapiens, UniProt P10632); assay: CYP450 inhibition, CYP2C8 Baculosomes, Vivid DBOMF substrate
T1 construct: purchased Life Technologies PV6138; host or cells: Baculosomes
T1 sequence (P10632 1-490): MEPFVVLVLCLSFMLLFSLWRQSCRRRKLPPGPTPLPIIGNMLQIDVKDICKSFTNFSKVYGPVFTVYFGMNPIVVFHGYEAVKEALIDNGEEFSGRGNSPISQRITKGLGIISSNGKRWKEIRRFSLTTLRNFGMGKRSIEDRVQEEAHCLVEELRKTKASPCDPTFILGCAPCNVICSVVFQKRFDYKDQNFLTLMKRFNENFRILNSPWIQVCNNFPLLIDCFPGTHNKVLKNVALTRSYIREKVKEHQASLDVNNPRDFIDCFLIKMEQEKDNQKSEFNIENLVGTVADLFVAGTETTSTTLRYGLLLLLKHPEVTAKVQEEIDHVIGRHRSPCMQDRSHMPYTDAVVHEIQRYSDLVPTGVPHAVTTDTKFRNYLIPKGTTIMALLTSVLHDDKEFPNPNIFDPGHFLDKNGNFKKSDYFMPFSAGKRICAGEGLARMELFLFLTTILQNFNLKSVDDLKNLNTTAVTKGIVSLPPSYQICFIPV
Experimental: (§1) Methods and Procedure: The study was performed in agreement with previously described procedures to assure data integrity and adherence to GLP standards. Briefly, recombinant human CYP450 isoenzymes were used to metabolize pro-fluorescent probe substrates to fluorescent products. IC50 values determined from the effect of test compounds on the metabolism of these probe substrates were then used to determine inhibitory potency against CYP450 isoforms.
(§2) The test system was based on a three-step procedure with a “mix and read” format, where PGP-432,TI reaction and reading were performed at 37° C. […] Fluorescence was measured in kinetic mode (1 read/minutes for 10 minutes), and the fluorescence rate was calculated. […]
Next, 10 μL/well from the compound plate was added and incubated for 10 minutes at 37° C. on a plate shaker, while a mixture of Vivid Substrate and Vivid NADP+ in Vivid CYP450 Reaction Buffer was prepared. The reaction was initiated by adding 10 μL/well of the Vivid Substrate and NADP+ mixture, before transferring the plate into the fluorescent plate reader (immediately, within 2 minutes), and fluorescence was monitored every minute for 10 minutes according to the specific protocol. Regarding data analysis, the inhibition effect is expressed as a percentage. […]

CYP2D6 = target: T2, CYP2D6 (Homo sapiens, UniProt P10635); assay: CYP450 inhibition, fluorescent probe, recombinant microsomes: CYP2D6
T2 construct: host or cells: recombinant microsomes
T2 sequence (P10635 whole entry): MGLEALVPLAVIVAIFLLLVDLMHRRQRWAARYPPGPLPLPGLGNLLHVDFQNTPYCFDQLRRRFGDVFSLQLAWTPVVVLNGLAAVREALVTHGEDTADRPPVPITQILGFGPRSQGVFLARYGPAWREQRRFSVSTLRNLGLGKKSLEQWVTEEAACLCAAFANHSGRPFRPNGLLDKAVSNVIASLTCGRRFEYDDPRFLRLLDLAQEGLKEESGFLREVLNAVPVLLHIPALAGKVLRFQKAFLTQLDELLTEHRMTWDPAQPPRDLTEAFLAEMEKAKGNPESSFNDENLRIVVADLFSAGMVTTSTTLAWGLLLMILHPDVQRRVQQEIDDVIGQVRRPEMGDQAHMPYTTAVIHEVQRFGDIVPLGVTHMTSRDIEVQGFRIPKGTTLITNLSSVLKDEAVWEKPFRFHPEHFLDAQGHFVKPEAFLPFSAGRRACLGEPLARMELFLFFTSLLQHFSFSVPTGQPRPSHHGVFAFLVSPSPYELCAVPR
Experimental: as §1, §2
(§3) Microsomes were added to the buffer prior to the substrate addition. […] For fluorescence measurement, 10 μL/well of the test compounds were transferred from the compound plate to the assay plate using Biomek FX and the appropriate protocol. […]
(§4) 10 μL/well of the cofactor was then added to the assay plate using the Multidrop before placing the assay plate in the plate reader EnVision to measure fluorescence. […]
(§5) Next, 10 μL/well from the compound plate was added and incubated for 10 minutes at 37° C. on a plate shaker, while a mixture of Vivid Substrate and Vivid NADP+ in Vivid CYP450 Reaction Buffer was prepared. […] Regarding data analysis, the inhibition effect is expressed as a percentage. […]

CYP2C19 = target: T3, CYP2C19 (Homo sapiens, UniProt P33261); assay: CYP450 inhibition, fluorescent probe, recombinant microsomes: CYP2C19
T3 construct: host or cells: recombinant microsomes
T3 sequence (P33261 whole entry): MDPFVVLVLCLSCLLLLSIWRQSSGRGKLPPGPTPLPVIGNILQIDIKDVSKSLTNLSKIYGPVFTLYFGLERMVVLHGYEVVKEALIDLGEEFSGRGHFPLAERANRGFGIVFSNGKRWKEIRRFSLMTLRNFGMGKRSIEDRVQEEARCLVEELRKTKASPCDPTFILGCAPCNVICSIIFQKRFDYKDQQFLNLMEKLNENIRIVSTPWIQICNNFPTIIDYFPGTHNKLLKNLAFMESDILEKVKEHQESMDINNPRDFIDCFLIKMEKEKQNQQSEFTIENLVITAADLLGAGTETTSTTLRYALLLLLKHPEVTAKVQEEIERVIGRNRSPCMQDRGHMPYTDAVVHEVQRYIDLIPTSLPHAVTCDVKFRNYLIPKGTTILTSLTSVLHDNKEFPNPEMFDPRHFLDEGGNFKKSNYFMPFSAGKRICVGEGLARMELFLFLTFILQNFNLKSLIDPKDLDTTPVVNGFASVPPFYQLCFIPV
Experimental: as §1, §2, §3, §4, §5

Structure (SMILES) | IC50 (CYP2C8; recombinant human CYP2C8) [µM] | IC50 (CYP2D6; recombinant human CYP2D6, read-out: CYP450 Inhibition (IC50), CYP2D6) [µM] | IC50 (CYP2C19; recombinant human CYP2C19) [µM] | IC50 at 10 min (CYP2C8; human, recombinant CYP2C8 Baculosomes, pH 8, probe Vivid DBOMF) [µM] | IC50 (CYP2D6) [µM] | IC50 at 10 min (CYP2C19; human, recombinant microsomes expressing CYP2C19) [µM]
Clc1ccc(C23CNC(CO2)C3)cc1Cl (stereo not drawn) [522A, 1-(3,4-dichlorophenyl)-2-oxa-5-azabicyclo[2.2.1]heptane] | > 50 | 2.87 | > 50 | – | – | –
CNC(C)Cc1ccc2c(c1)OCO2 (stereo not drawn) [MDMA, reference compound] | – | – | – | 50 | 1.6 | 50
